Five compounds from publication PMC7260106 (Toxicology in vitro : an international journal published in …, 2020) can be followed below.

Test [1] deals with T1, Ah receptor (AhR) (Mus musculus, UniProt P30561).
T1 sequence (P30561 10-848): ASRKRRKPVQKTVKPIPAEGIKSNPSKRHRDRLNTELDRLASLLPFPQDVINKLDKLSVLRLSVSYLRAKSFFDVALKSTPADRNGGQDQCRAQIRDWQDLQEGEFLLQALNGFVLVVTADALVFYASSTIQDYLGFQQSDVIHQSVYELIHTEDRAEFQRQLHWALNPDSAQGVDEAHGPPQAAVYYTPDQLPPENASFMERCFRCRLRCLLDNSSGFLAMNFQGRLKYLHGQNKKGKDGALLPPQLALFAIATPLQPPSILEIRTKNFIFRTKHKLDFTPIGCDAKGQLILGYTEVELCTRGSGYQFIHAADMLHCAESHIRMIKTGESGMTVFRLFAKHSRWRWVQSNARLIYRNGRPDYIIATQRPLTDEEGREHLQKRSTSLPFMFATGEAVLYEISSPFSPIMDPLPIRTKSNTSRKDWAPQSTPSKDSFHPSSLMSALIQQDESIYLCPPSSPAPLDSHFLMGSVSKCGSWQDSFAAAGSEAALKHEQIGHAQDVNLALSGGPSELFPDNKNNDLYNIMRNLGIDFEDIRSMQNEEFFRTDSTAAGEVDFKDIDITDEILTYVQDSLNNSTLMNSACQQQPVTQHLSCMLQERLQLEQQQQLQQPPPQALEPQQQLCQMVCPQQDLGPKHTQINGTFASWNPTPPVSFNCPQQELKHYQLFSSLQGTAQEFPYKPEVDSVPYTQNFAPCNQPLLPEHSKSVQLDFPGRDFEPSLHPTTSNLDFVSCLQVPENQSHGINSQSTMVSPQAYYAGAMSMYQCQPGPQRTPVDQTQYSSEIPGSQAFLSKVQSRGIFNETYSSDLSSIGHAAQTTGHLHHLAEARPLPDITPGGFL
Description: yAhR nuclear translocation in yAHAYc6 cells. In kind it is cell-based.

In test [2] the target is T1, Ah receptor (AhR). As to the kind of experiment: yAhR nuclear translocation in yAHAYc6 cells, fluorescence microscopy. In kind it is cell-based.

On Ah receptor (AhR) [1], `Clc1cc2c(cc1Cl)Oc1cc(Cl)c(Cl)cc1O2` [TCDD, 2,3,7,8-tetrachlorodibenzo-p-dioxin] had an EC50 of 0.2 nM.
As for `Cc1ccc2cc3c(ccc4ccccc43)c3c2c1CC3` [3-methylcholanthrene], at Ah receptor (AhR) [2], the “yAhR nuclear translocation in yAHAYc6 cells, fluorescence microscopy” value (“yAhR nuclear translocation” for short) was “known AhR agonists (TCDD, DBA, PCB77, indirubin, 3MC and BNF”.
As to `O=C1Nc2ccccc2/C1=C1/Nc2ccccc2C1=O` [indirubin], the “yAhR nuclear translocation” value at Ah receptor (AhR) [2] was “known AhR agonists (TCDD, DBA, PCB77, indirubin, 3MC and BNF”.
`Clc1ccc(-c2ccc(Cl)c(Cl)c2)cc1Cl` [PCB77, 3,3’,4,4’-Tetrachlorobiphenyl]: the “yAhR nuclear translocation” value on Ah receptor (AhR) [2] was “known AhR agonists (TCDD, DBA, PCB77, indirubin, 3MC and BNF”.
Same read-out and setting: for `c1ccc2c(c1)ccc1cc3c(ccc4ccccc43)cc12` [dibenz(a,h)anthracene] the value was “known AhR agonists (TCDD, DBA, PCB77, indirubin, 3MC and BNF”.
